The structures appear in SMILES notation.

In general, melting point refers to the temperature of the solid-liquid transition. A word on the inhibition: it is the percentage by which the read-out fell short of the control. A low value points to little suppression.

Series [1] concerns IL-6. Nature of the series: IL-6 production from LPS-stimulated human monocytes (ELISA). The format is cell-based. The conditions noted are these: Monocyte, Conc. 10 μM. The method, then: This assay determines the effect of test compounds on the production of IL-6 from human monocytes. Compounds are tested for their ability to downregulate the production of IL-6 in activated monocytes. Test compounds were incubated for three, six and twenty four hours with human monocytes. Lipopolysaccharide was used to stimulate the monocytes. The level of Interleukin-6 is quantitated using Enzyme-Linked Immunosorbent assay performed in a 96 well format.
On the technique in general: An ELISA detects its analyte on a solid surface through an enzyme-linked reagent.

The test system of series [2] is TNF-α. The series is described as follows: TNF-α production from LPS-stimulated human monocytes (ELISA). The class given is cell-based. Particulars: Monocyte, Conc. 10 μM. On the procedure: This assay determines the effect of test compounds on the production of TNF-α from human monocytes. Compounds were tested for their ability to downregulate the production of TNF-α in activated monocytes. Test compounds were incubated for three, six and twenty four hours with human monocytes. Lipopolysaccharide was used to stimulate the monocytes. The level of TNF-α was quantitated using Enzyme-Linked Immunosorbent assay performed in a 96 well format.

Series [3] addresses T1, COX-2 (Homo sapiens, UniProt P35354).
T1 construct: incubation of human blood with lipopolysaccharide (LPS), which induces COX-2 production in the blood; endogenous in cells; host or cells: fresh human whole blood from male volunteers, treated with aspirin and then LPS
T1 sequence (P35354 18-604): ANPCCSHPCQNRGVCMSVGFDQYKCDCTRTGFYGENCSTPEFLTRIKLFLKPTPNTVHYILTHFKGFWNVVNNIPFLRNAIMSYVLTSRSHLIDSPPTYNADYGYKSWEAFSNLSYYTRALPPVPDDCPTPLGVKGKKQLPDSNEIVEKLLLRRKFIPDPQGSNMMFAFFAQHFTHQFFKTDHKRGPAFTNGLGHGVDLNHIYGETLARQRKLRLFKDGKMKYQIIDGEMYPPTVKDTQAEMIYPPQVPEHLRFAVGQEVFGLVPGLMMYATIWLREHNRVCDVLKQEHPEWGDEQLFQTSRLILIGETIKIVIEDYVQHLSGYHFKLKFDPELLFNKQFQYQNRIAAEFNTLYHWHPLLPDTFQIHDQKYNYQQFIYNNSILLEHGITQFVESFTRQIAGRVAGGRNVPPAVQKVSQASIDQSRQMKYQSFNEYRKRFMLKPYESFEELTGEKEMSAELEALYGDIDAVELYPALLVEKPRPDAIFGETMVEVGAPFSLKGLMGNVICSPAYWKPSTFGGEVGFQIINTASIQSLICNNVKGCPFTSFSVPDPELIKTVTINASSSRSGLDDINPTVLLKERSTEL
Nature of the series: Human whole blood assay, COX-2 inhibition (PGE2 ELISA after LPS). The class given is cell-based. Particulars: Conc. 1 μM, aspirin-treated, LPS 10 μg/ml, 24 h at 37° C., PGE2 in plasma. The method, then: The COX-2 inhibition activity of the compounds illustrated in the examples was determined by the following method.
Human whole blood provides a protein and cell rich milieu appropriate for the study of biochemical efficacy of anti-inflammatory compounds such as selective COX-2 inhibitors. […] This is correlating with the observation that COX-2 inhibitors have no effect on prostaglandin E2 (PGE2) production in normal blood. These inhibitors are active only after incubation of human blood with lipopolysaccharide (LPS), which induces COX-2 production in the blood.
Fresh blood was collected in tubes containing potassium EDTA by vein puncture from male volunteers. The subjects should have no apparent inflammatory conditions and not taken NSAIDs for atleast 7 days prior to blood collection. Blood was treated with aspirin in vitro (10 μg/ml, at time zero) to inactivate COX-1, and then with LPS (10 μg/ml) along with test agents or vehicle. The blood was incubated for 24 h at 37° C., after which the tubes were centrifuged, the plasma was separated and stored at −80° C. (J Pharmacol Exp Ther 271, 1705, 1994; Proc Natl Acad Sci USA 96, 7563, 1999). The plasma was assayed for PGE2 using Cayman ELISA kit as per the procedure outlined by the manufacturer (Cayman Chemicals, Ann Arbor, USA). […]

For the compound `CS(=O)(=O)c1ccc(-n2c(-c3ccccc3)cc(=O)[nH]c2=O)cc1` [Example 6, 1-(4-methylsulfonyl-phenyl)-6-phenyl-pyrimidin-1H-pyrimidin-2,4-(1H)-dione], the melting point is 283 to 287 °C (dec.). Further, 10 µM produced 75.3% inhibition in series [1]. The compound also gave an inhibition at 10 µM in series [2] of 43.2%.
Consider `Cc1ccc(-c2cc(=O)[nH]c(=O)n2-c2ccc(S(C)(=O)=O)cc2)cc1` [Example 7], for which the melting point fell in the range of 285 to 288 °C. This compound also gave an inhibition at 1 µM in series [3] of 40.8%. Also, the inhibition at 10 µM in series [1] came out at 81.3%. Moreover, at 10 µM the inhibition in series [2] was 57.6%.
On to `CSc1ccc(-n2c(-c3ccc(Cl)cc3)cc(=O)[nH]c2=O)cc1` [Example 3, 1-(4-methylsulfanyl-phenyl)-6-(4-chlorophenyl)-1H-pyrimidin-2,4-(1H)-dione], for which the melting point lay in the range of 249 to 251 °C.
Still for that read-out and setting: then `CSc1ccc(-c2cc(=O)[nH]c(=O)n2-c2ccc(Br)cc2)cc1` [Example 5, 1-(4-bromophenyl)-6-(4-methylsulfanyl-phenyl)-1H-pyrimidin-2,4-(1H)-dione], with 282 to 285 °C.
For `CSc1ccc(-n2c(-c3ccc(C)cc3)cc(=O)[nH]c2=O)cc1` [Example 2, 1-(4-methylsulfanyl-phenyl)-6-(4-methylphenyl)-1H-pyrimidin-2,4-(1H)-dione], the melting point fell in the range of 235 to 238 °C. The same compound came in with an inhibition at 10 µM in series [1] of 78.6%. In series [2], this compound gave an inhibition at 10 µM of 69.3%.
As to `CSc1ccc(-n2c(-c3ccccc3)cc(=O)[nH]c2=O)cc1` [Example 1, 1-(4-methylsulfanyl-phenyl)-6-phenyl-1H-pyrimidin-2,4-(1H)-dione], the melting point is 239 to 242 °C (dec.). In series [1], this compound yielded an inhibition at 10 µM of 80.6%. The compound further displayed an inhibition at 10 µM in series [2] of 48.5%.
Turning to `CSc1ccc(-c2cc(=O)[nH]c(=O)n2-c2ccc(C)cc2)cc1` [Example 4, 1-(4-methylphenyl)-6-(4-methylsulfanyl-phenyl)-1H-pyrimidin-2,4-(1H)-dione], the melting point was 266 to 268 °C.
The same measure, in the same setting: the figure for `CS(=O)(=O)c1ccc(-n2c(-c3ccc(Cl)cc3)cc(=O)[nH]c2=O)cc1` [Example 8, 6-(4-chlorophenyl)-1-(4-methylsulfonyl-phenyl)-1H-pyrimidin-2,4-(1H)-dione] is 294 to 298 °C.

The values are drawn from US7399760B2, “Pyrimidinedione derivatives” (Bexel Pharmaceuticals Inc., priority 2002, dated 2008).
